Patent US7842681B2, “Treatment of myeoproliferative diseases” (Abbott Laboratories, priority 2006, dated 2010)

Experiments:
circulating platelets [1] = assay: Circulating platelet count in dogs on multiple oral daily dosing; type: in vivo; conditions: male beagle dogs, once daily oral gavage, 2 mg/kg days 2-7, 6 mg/kg days 8-15 (FIG. 5)
Protocol: (§1) The effect of Bcl-2 protein inhibitors on circulating platelets can be determined by administration of test compounds, preferably orally or intravenously, to an animal and analyzing a blood sample and determining the number of platelets by techniques well-known in the art. Preferably, blood samples are obtained from about 2 hours to about 48 hours after compound administration.
Male beagle dogs (n=3/group; 8-12 kg) were treated once daily with N-(4-(4-((2-(4-chlorophenyl)-5,5-dimethyl-1-cyclohex-1-en-1-yl)methyl)piperazin-1-yl)benzoyl)-4-(((1R)-3-(morpholin-4-yl)-1-((phenylsulfanyl)methyl)propyl)amino)-3-((trifluoromethyl)sulfonyl)benzenesulfonamide in 10:90 DMSO/PEG 400 (by volume) by oral gavage at a dose of 2 mg/kg on days 2-7 and at a dose of 6 mg/kg on days 8-15 of the study. Blood samples were collected at baseline and 6 hours post dosing on days 2-5, 8-12 and day 15 from the jugular vein, treated with EDTA and the whole blood analyzed for platelet counts on a Cell-Dyn 3700 (Abbott Laboratories). Percent starting platelet counts (PC) were calculated using the following equation. [1−(PCt=0−PCt=6)/PCt=0]×100%.

dog platelets = assay: Viability of dog platelets; type: cell-based
human platelets = assay: Viability of human platelets; type: cell-based
platelets = assay: Activation of apoptotic processes in platelets; type: cell-based, dog and human
isolated platelets = assay: Aggregation of isolated platelets; type: cell-based
Bcl-2 = assay: Binding to Bcl-2 protein
Protocol: Binding affinity of compounds to Bcl-2 protein is indicia of their inhibition of the activity of this protein. To determine the binding affinity of compounds to Bcl-2, representative examples were diluted in DMSO to concentrations between […] and added to each well of a 96-well microtiter plate. A mixture comprising 125 µL per well of assay buffer (20 mM phosphate buffer (pH 7.4), 1 mM EDTA, 50 mM NaCl, 0.05% PF-68), 10 nM of Bcl-2 protein (prepared according to the procedure described in PNAS 2001, 98, 3012-3017), 1 nM fluorescein-labeled BAX peptide (prepared in-house) and the DMSO solution of the representative example was shaken for 2 minutes and placed in a LJL Analyst (LJL Bio Systems, CA. Polarization was measured at room temperature using a continuous Fluorescein lamp (excitation 485 nm, emission 530 nm). Percentage of inhibition was determined by (1-((mP value of well-negative control)/range))×100%.

Bcl-XL = target: T1, Bcl-XL (Homo sapiens, UniProt Q07817); assay: Binding to Bcl-XL protein
T1 construct: made in house
T1 sequence (Q07817 whole entry): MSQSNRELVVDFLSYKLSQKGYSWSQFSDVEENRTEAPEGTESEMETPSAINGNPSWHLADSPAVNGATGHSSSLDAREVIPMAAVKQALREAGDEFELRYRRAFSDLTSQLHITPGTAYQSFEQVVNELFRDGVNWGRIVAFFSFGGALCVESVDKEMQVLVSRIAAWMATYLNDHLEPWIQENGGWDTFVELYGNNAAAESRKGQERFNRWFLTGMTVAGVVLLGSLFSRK
Protocol: Binding affinity of compounds to Bcl-XL protein is indicia of their inhibition of the activity of this protein. To determine the binding affinity of compounds to Bcl-XL protein, representative examples were diluted in DMSO to concentrations between 100 μM and 1 μM and added to each well of a 96-well microtiter plate. A mixture comprising 125 μL per well of assay buffer (20 mM phosphate buffer (pH 7.4), 1 mM EDTA, 50 mM NaCl, 0.05% PF-68), 6 nM of Bcl-XL protein (prepared as described in Science 1997, 275, 983-986), 1 nM fluorescein-labeled BAD peptide (prepared in-house) and the DMSO solution of the compound was shaken for 2 minutes and placed in a LJL Analyst (LJL Bio Systems, CA). A negative control (DMSO, 15 nM BAD peptide, assay buffer) and a positive control (DMSO, 1 nM BAD peptide, 6 nM Bcl-XL, assay buffer) were used to determine the range of the assay. Polarization was measured at room temperature using a continuous Fluorescein lamp (excitation 485 nm, emission 530 nm). Percentage of inhibition was determined by (1-((mP value of well-negative control)/range))×100%.

Bcl-w = target: T2, Bcl-w (Homo sapiens, UniProt Q92843); assay: Binding to Bcl-w
T2 sequence (Q92843 1-193): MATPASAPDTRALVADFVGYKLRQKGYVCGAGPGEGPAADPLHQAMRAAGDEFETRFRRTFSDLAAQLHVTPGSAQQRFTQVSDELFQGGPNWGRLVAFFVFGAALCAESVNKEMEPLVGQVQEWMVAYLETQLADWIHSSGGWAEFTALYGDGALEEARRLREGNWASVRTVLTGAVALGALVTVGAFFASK

circulating platelets [2] = assay: Circulating platelet count in dogs after a single oral dose; type: in vivo; conditions: male beagle dogs, one 5 mg/kg oral dose (FIG. 1, FIG. 2)
Protocol: as §1
Male beagle dogs (n=3/group; 8-12 kg) were treated with a single dose of 5 mg/kg N-(4-(4-((2-(4-chlorophenyl)-4,4-dimethylcyclohex-1-en-1-yl)methyl)piperazin-1-yl)benzoyl)-4-(((1R)-3-(morpholin-4-yl)-1-((phenylsulfanyl)methyl)propyl)amino)-3-((trifluoromethyl)sulfonyl)benzenesulfonamide in 10:30:60 ethanol/phosal 50 PG/PEG 400 (by weight) by oral gavage. Blood samples were collected at baseline and at the indicated time points from the jugular vein, treated with EDTA and the whole blood analyzed for platelet counts on a Cell-Dyn 3700 (Abbott Laboratories).
Male beagle dogs (n=3/group; 8-12 kg) were treated with a single dose of 5 mg/kg 3-((chloro(difluoro)methyl)sulfonyl)-N-(4-(4-((2-(4-chlorophenyl)-4,4-dimethylcyclohex-1-en-1-yl)methyl)piperazin-1-yl)benzoyl)-4-(((1R)-3-(morpholin-4-yl)-1-((phenylsulfanyl)methyl)propyl)amino)benzenesulfonamide in 10:90 DMSO/PEG 400 (by volume) by oral gavage. […]

| Structure (SMILES) | circulating platelet count, multiple oral dosing (circulating platelets [1]) | viability of platelets (dog platelets) | viability of platelets (human platelets) | PS (phosphotidyl serine) externalization (platelets) | caspase 3 activation (platelets) | cytochrome c release (platelets) | aggregation of isolated platelets (isolated platelets) | binding to Bcl-2 (Bcl-2) | binding to Bcl-XL (Bcl-XL) | binding to Bcl-w (Bcl-w) | circulating platelet count (circulating platelets [2]) |
| --- | --- | --- | --- | --- | --- | --- | --- | --- | --- | --- | --- |
| CC1(C)CCC(c2ccc(Cl)cc2)=C(CN2CCN(c3ccc(C(=O)NS(=O)(=O)c4ccc(N[C@H](CCN5CCOCC5)CSc5ccccc5)c(S(=O)(=O)C(F)(F)F)c4)cc3)CC2)C1 [EXAMPLE 2, N-(4-(4-((2-(4-chlorophenyl)-5,5-dimethyl-1-cyclohex-1-en-1-yl)methyl)piperazin-1-yl)benzoyl)-4-(((1R)-3-(morpholin-4-yl)-1-((phenylsulfanyl)methyl)propyl)amino)-3-((trifluoromethyl)sulfonyl)benzenesulfonamide] | proportionate effect | reduced | reduced | activated | activated | activated | did not induce | capable of binding | capable of binding | capable of binding |  |
| CC1(C)CCC(CN2CCN(c3ccc(C(=O)NS(=O)(=O)c4ccc(N[C@H](CCN5CCOCC5)CSc5ccccc5)c(S(=O)(=O)C(F)(F)F)c4)cc3)CC2)=C(c2ccc(Cl)cc2)C1 [EXAMPLE 6, N-(4-(4-((2-(4-chlorophenyl)-4,4-dimethylcyclohex-1-en-1-yl)methyl)piperazin-1-yl)benzoyl)-4-(((1R)-3-(morpholin-4-yl)-1-((phenylsulfanyl)methyl)propyl)amino)-3-((trifluoromethyl)sulfonyl)benzenesulfonamide] |  |  |  |  |  |  |  |  |  |  | rapid reduction in circulating platelet count |
| CN(C)CC[C@H](CSc1ccccc1)Nc1ccc(S(=O)(=O)NC(=O)c2ccc(N3CCN(Cc4ccccc4-c4ccc(Cl)cc4)CC3)cc2)cc1[N+](=O)[O-] [EXAMPLE 7, N-(4-(4-((4′-chloro(1,1′-biphenyl)-2-yl)methyl)piperazin-1-yl)benzoyl)-4-(((1R)-3-(dimethylamino)-1-((phenylsulfanyl)methyl)propyl)amino)-3-nitrobenzenesulfonamide] |  |  |  |  |  |  |  | capable of binding | capable of binding | capable of binding |  |
